Results as given in ChEMBL document CHEMBL4699558, “Lead optimization of 8-(methylamino)-2-oxo-1,2-dihydroquinolines as bacterial type II topoisomerase inhibitors” (Bioorg Med Chem, 2020).
≈ marks a conversion by molar mass, not a printed value.

What was measured:
DNA gyrase = DNA gyrase (Escherichia coli, UniProt P0AES4+P0AES6); test: Inhibition of Escherichia coli DNA gyrase by measuring supercoiling activity incubated for 60 mins by fluorescence based assay; type: protein-complex assay
Escherichia coli [1] = test: Antibacterial activity against Escherichia coli ATCC 25922 by CLSI method; type: functional
Escherichia coli [2] = test: Antibacterial activity against Escherichia coli ATCC 25922 in presence of PAbetaN by CLSI method; type: functional
Staphylococcus aureus [3] = test: Antibacterial activity against Staphylococcus aureus ATCC 29213 by CLSI method; type: functional
Staphylococcus aureus [4] = test: Antibacterial activity against Methicillin-resistant Staphylococcus aureus by CLSI method; type: functional

Structure (SMILES) | IC50 (DNA gyrase) [nM] | MIC (Escherichia coli [1]) [µg/mL] | MIC (Escherichia coli [2]) [µg/mL] | MIC (Staphylococcus aureus [3]) [µg/mL] | MIC50 (Staphylococcus aureus [4]) [µg/mL] | MIC90 (Staphylococcus aureus [4]) [µg/mL]
CNCCNc1c(C(=O)Nc2ccc(C(=O)O)cc2)c(=O)[nH]c2c(NC)cc(F)cc12.O=CO | 2.09 | > 16 | 8 | > 16 |  | 
CNc1cc(F)cc2c(NCC3CNC3)c(C(=O)Nc3ccc(C(=O)O)cc3)c(=O)[nH]c12.O=CO | 0.66 | > 16 |  | > 16 |  | 
CNc1cc(F)cc2cc(C(=O)Nc3ccc(CO)cc3CN(C)C3CCCCC3)c(=O)[nH]c12 | 1.92 | 16 (≈ 34.3 µM) | 0.06 | 4 (≈ 8.57 µM) |  | 
CNc1cc(F)cc2c(O)c(C(=O)Nc3ccc(C(=O)NS(=O)(=O)N(C)C)cc3CN3CCCCC3)c(=O)[nH]c12 | 4.44 | 64 (≈ 111 µM) | 0.06 |  |  | 
CNc1cc(F)cc2cc(C(=O)Nc3ccc(C(=O)O)cc3CN(CCN)C3CCCCC3)c(=O)[nH]c12.O=C(O)C(F)(F)F | 3.68 | > 64 | 16 | > 64 |  | 
CNc1cc(F)cc2c(NCCCN)c(C(=O)Nc3ccc(C(=O)O)cc3)c(=O)[nH]c12.O=CO | 0.52 | > 8 | 2 | > 8 |  | 
Cc1onc(-c2ccccc2)c1C(=O)N[C@@H]1C(=O)N2[C@@H]1SC(C)(C)[C@@H]2C(=O)O [OXACILLIN] |  |  |  |  | > 128 | > 128
CNCCc1c(C(=O)Nc2ccc(C(=O)O)cc2)c(=O)[nH]c2c(NC)cc(F)cc12.O=C(O)C(F)(F)F | 109 | > 8 | > 8 | > 8 |  | 
CNc1cc(F)cc2cc(C(=O)Nc3ccc(C(=O)NCCN)cc3)c(=O)[nH]c12.Cl | 9.4 | > 8 | > 8 | > 8 |  | 
CNc1cc(F)cc2c(NCC3CCNCC3)c(C(=O)Nc3ccc(C(=O)O)cc3)c(=O)[nH]c12.O=CO | 1.31 | > 32 | 0.5 | > 32 |  | 
CNc1cc(F)cc2cc(C(=O)Nc3ccc(C(=O)O)cc3CNC3CCCCC3)c(=O)[nH]c12.O=C(O)C(F)(F)F | 0.26 | 32 | 0.5 | 16 |  | 
CNc1cc(F)cc2c(NCC3(N)CCC3)c(C(=O)Nc3ccc(C(=O)O)cc3)c(=O)[nH]c12.O=CO | 2.15 | > 32 | 0.25 | > 32 |  | 
CNc1cc(F)cc2cc(C(=O)Nc3ccc(C(=O)N(C)CCN4CCOCC4)cc3)c(=O)[nH]c12 | 6.36 | > 16 | 0.12 | 16 (≈ 33.2 µM) |  | 
CNc1cc(F)cc2cc(C(=O)Nc3ccc(C(N)=O)cc3CN(C)C3CCCCC3)c(=O)[nH]c12 | 2.48 | > 32 | ≤ 0.03 | > 32 |  | 
CNc1cc(F)cc2c(NCCN)c(C(=O)Nc3ccc(C(=O)O)cc3)c(=O)[nH]c12.O=CO | 0.94 | > 16 | 4 | > 16 |  | 
CNCCCc1c(C(=O)Nc2ccc(C(=O)O)cc2)c(=O)[nH]c2c(NC)cc(F)cc12.O=C(O)C(F)(F)F | 131 | > 32 | > 32 |  |  | 
CNc1cc(F)cc2cc(C(=O)Nc3ccc(C(=O)O)cc3CNCCO)c(=O)[nH]c12.Cl | 129 | > 64 | 2 | > 64 |  | 
CNc1cc(F)cc2c(NCCN3CCOCC3)c(C(=O)Nc3ccc(C(=O)O)cc3)c(=O)[nH]c12.O=CO | 14.6 | > 64 | 0.12 | 32 |  | 
CNc1cc(F)cc2c(N[C@H]3C[C@@H](N)C3)c(C(=O)Nc3ccc(C(=O)O)cc3)c(=O)[nH]c12.O=CO | 2.66 | > 32 | 1 | > 32 |  | 
CNc1cc(F)cc2cc(C(=O)Nc3ccc(C(=O)O)c(O)c3)c(=O)[nH]c12 | 2.05 | > 32 | 1 | > 32 |  | 
